Results reported in patent US20190374534A1, “LIQUID PHARMACEUTICAL COMPOSITIONS COMPRISING PERGOLIDE” (Boehringer Ingelheim Vetmedica GmbH, priority 2018, published 2019).
Structures can show the parent of a compound that is named as a salt.

Assay: Particle-size distribution (PSD) analysis, Malvern Mastersizer 3000
Assay type: physicochemical
Conditions: certificate of analysis, FIG. 1; after spiral jet-mill micronization
Description: PARTICLE-SIZE DISTRIBUTION (PSD) ANALYTICAL METHOD: Equipment Malvern Mastersizer 3000 equipped with Hydro MV dispersion unit Dispersant Preparation—1. Fill the dispersion unit with hexane—2. Check that the channel 1 of background signal is less than 80 and no anomalous spikes are present—3. Check the background signal: it has to be stable and complying with the following limits: Channel 1<100, Channel 20<60. Sample Preparation—Randomize the sample by manually tumbling and rolling for 30 seconds, weigh approximately 15 mg of powder in a 100 mL Erlenmeyer flask, add 2 mL of Span 85 (Sorbitane trioleate; 5% w/w water solution). A homogeneous mixture, using the tip of a small stainless steel spatula, has to be obtained. Using a Pasteur pipette add 1 mL of water and homogenize the suspension. Repeat this operation until a volume of 8-10 mL is reached. Sonicate the sample for 5 seconds in an ultrasonic bath (25 kHz). Procedure—1. Once a stable background signal is obtained, proceed with the SOP—2. Add the sample until the obscuration target is reached. Avoid droplets to fall directly into the liquid when adding the sample suspension putting the pipette tip under water—3. Initiate the measurement—4. The particle size distribution values (D10, D50 and D90) are taken directly from the Malvern screen. All three values determined for a sample are average and rounded to obtain the final values.

- median particle size: 13.3 μm
- particle size distribution D90 value: 39.4 μm
Compound: CCCN1C[C@H](CSC)C[C@@H]2c3cccc4[nH]cc(c34)C[C@H]21 [micronized pergolide mesylate, (8β)-8-[(methylthio)methyl]-6-propylergoline]
